Data published in US20230078764A1 (Yumanity Therapeutics, Inc., priority 2019, published 2023).
Read-outs that look alike come from different tables or passages of the source.

How the values were obtained:
human SCD5 = biological target: T1, human SCD5 (Homo sapiens, UniProt Q86SK9); assay: Growth inhibition of yeast strain expressing human SCD5 as sole desaturase (OLE1 deleted), OD600 readout; format: cell-based
T1 construct: expressed in transfected cells; host or cells: yeast strain with OLE1 deleted, plasmid-borne human SCD5 (selected in SD-Ura)
T1 sequence (Q86SK9 1-330): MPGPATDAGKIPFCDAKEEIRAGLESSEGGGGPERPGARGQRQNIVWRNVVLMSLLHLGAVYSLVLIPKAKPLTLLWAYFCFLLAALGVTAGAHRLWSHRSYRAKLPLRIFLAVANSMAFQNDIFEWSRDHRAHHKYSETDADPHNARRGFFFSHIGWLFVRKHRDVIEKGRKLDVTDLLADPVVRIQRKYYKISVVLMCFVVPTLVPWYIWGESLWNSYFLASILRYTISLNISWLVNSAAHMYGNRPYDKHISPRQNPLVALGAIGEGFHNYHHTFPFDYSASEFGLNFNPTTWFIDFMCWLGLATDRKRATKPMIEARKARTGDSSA

human SCD1 = biological target: T2, human SCD1 (Homo sapiens, UniProt O00767); assay: Growth inhibition of yeast strain expressing human SCD1 as sole desaturase (OLE1 deleted), OD600 readout; format: cell-based
T2 construct: expressed in transfected cells; host or cells: yeast strain with OLE1 deleted, plasmid-borne human SCD1 (selected in SD-Ura)
T2 sequence (O00767 1-359): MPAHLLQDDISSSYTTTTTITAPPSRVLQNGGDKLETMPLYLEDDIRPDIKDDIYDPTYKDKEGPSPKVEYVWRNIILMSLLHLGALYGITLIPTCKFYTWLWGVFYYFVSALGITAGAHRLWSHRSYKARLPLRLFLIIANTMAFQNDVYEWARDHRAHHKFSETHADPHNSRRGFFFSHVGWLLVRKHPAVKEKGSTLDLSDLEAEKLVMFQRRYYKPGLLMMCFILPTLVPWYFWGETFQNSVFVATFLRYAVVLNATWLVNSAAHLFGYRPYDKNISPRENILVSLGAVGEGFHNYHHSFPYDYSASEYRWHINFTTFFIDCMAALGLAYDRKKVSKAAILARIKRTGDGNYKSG

[1] = yeast strain expressing human SCD1 as sole desaturase, growth (OD600) after 40 h at 30° C., read-out: SCD1 IC50
[2] = yeast strain expressing human SCD5 as sole desaturase, growth (OD600) after 40 h at 30° C., read-out: SCD5 IC50

Row | Structure (SMILES) | IC50 (human SCD5; SCD5 IC50) [nM] | IC50 (human SCD1; [1]) [nM] | IC50 (human SCD1; SCD1 IC50) [nM] | IC50 (human SCD5; [2]) [nM]
1 | COc1ccc(Cc2ccc(NC(=O)c3ccc(=O)n(C)c3)nc2)cn1 [Compound 58, N-(5-((6-methoxypyridin-3-yl)methyl)pyridin-2-yl)-1-methyl-6-oxo-1,6-dihydropyridine-3-carboxamide] | 35600 | > 45000 | – | –
2 | Cn1cc(C(=O)Nc2ccc(Cc3cc(F)cc(F)c3)cn2)ccc1=O [Compound 59, N-(5-(3,5-difluorobenzyl)pyridin-2-yl)-1-methyl-6-oxo-1,6-dihydropyridine-3-carboxamide] | 10 | – | 310 | –
3 | Cn1cc(C(=O)Nc2ccc(Cc3ccc(F)c(Cl)c3)cn2)ccc1=O [Compound 60, N-(5-(3-chloro-4-fluorobenzyl)pyridin-2-yl)-1-methyl-6-oxo-1,6-dihydropyridine-3-carboxamide] | 650 | – | 4380 | –
4 | Cn1cc(C(=O)Nc2ccc(Cc3cccc(C#N)c3)cn2)ccc1=O [Compound 61, N-(5-(3-cyanobenzyl)pyridin-2-yl)-1-methyl-6-oxo-1,6-dihydropyridine-3-carboxamide] | 600 | – | 7520 | –
5 | Cn1cc(C(=O)Nc2ccc(Cc3ccc4c(c3)COC4)cn2)ccc1=O [Compound 62, N-(5-((1,3-dihydroisobenzofuran-5-yl)methyl)pyridin-2-yl)-1-methyl-6-oxo-1,6-dihydropyridine-3-carboxamide] | 2060 | – | 2340 | –
6 | Cn1cc(C(=O)Nc2ccc(Cc3ccc(C(F)(F)F)cc3)cn2)ccc1=O [Compound 63, 1-methyl-6-oxo-N-(5-(4-(trifluoromethyl)benzyl)pyridin-2-yl)-1,6-dihydropyridine-3-carboxamide] | 320 | – | 380 | –
7 | Cn1cc(C(=O)Nc2ccc(Cc3ccc(Cl)cc3)cn2)ccc1=O [Compound 64, N-(5-(4-chlorobenzyl)pyridin-2-yl)-1-methyl-6-oxo-1,6-dihydropyridine-3-carboxamide] | 60 | – | 560 | –
8 | Cn1cc(C(=O)Nc2ccc(CC3CCCCC3)cn2)ccc1=O [Compound 65, N-(5-(cyclohexylmethyl)pyridin-2-yl)-1-methyl-6-oxo-1,6-dihydropyridine-3-carboxamide] | 140 | – | 1210 | –
9 | Cn1cc(C(=O)Nc2ccc(Cc3ccc(F)c(F)c3)cn2)ccc1=O [Compound 66, N-(5-(3,4-difluorobenzyl)pyridin-2-yl)-1-methyl-6-oxo-1,6-dihydropyridine-3-carboxamide] | 10 | – | 1440 | –
10 | CCn1nc(C(=O)Nc2ccc(Cc3cccc(Cl)c3)cn2)ccc1=O [Compound 67, N-(5-(3-chlorobenzyl)pyridin-2-yl)-1-ethyl-6-oxo-1,6-dihydropyridazine-3-carboxamide] | – | 440 | – | 120
11 | CCn1nc(C(=O)Nc2ccc(Cc3cccc(F)c3)cn2)ccc1=O [Compound 68, 1-ethyl-N-(5-(3-fluorobenzyl)pyridin-2-yl)-6-oxo-1,6-dihydropyridazine-3-carboxamide] | – | 1650 | – | 260
12 | CCn1nc(C(=O)Nc2ccc(Cc3cc(F)cc(C#N)c3)cn2)ccc1=O [Compound 69, N-(5-(3-cyano-5-fluorobenzyl)pyridin-2-yl)-1-ethyl-6-oxo-1,6-dihydropyridazine-3-carboxamide] | – | > 45000 | – | 270
13 | CCn1nc(C(=O)Nc2ccc(Cc3ccc(Cl)c(Cl)c3)cn2)ccc1=O [Compound 70, N-(5-(3,4-dichlorobenzyl)pyridin-2-yl)-1-ethyl-6-oxo-1,6-dihydropyridazine-3-carboxamide] | – | 2900 | – | 490
14 | CCCn1nc(C(=O)Nc2ccc(Cc3cccc(F)c3)cn2)ccc1=O [Compound 71, N-(5-(3-fluorobenzyl)pyridin-2-yl)-6-oxo-1-propyl-1,6-dihydropyridazine-3-carboxamide] | – | > 45000 | – | 3910
15 | CC(C)n1nc(C(=O)Nc2ccc(Cc3cccc(F)c3)cn2)ccc1=O [Compound 72, N-(5-(3-fluorobenzyl)pyridin-2-yl)-1-isopropyl-6-oxo-1,6-dihydropyridazine-3-carboxamide] | 390 | – | 4700 | –
16 | CC(C)n1nc(C(=O)Nc2ccc(Cc3cccc(Cl)c3)cn2)ccc1=O [Compound 73, N-(5-(3-chlorobenzyl)pyridin-2-yl)-1-isopropyl-6-oxo-1,6-dihydropyridazine-3-carboxamide] | – | 8080 | – | 170

Row | Structure (SMILES) | IC50 (human SCD5; SCD5 IC50) [nM] | IC50 (human SCD1; [1]) [nM] | IC50 (human SCD1; SCD1 IC50) [nM] | IC50 (human SCD5; [2]) [nM]
17 | O=C(Nc1ccc(Cc2cc(F)cc(Cl)c2)cn1)c1ccc(=O)n(C2CC2)n1 [Compound 74, N-(5-(3-chloro-5-fluorobenzyl)pyridin-2-yl)-1-cyclopropyl-6-oxo-1,6-dihydropyridazine-3-carboxamide] | – | 250 | – | 10
18 | O=C(Nc1ccc(Cc2cccc(F)c2)cn1)c1ccc(=O)n(C2CC2)n1 [Compound 75, 1-cyclopropyl-N-(5-(3-fluorobenzyl)pyridin-2-yl)-6-oxo-1,6-dihydropyridazine-3-carboxamide] | – | 1490 | – | 10
19 | O=C(Nc1ccc(Cc2ccc(F)c(Cl)c2)cn1)c1ccc(=O)n(C2CC2)n1 [Compound 76, N-(5-(3-chloro-4-fluorobenzyl)pyridin-2-yl)-1-cyclopropyl-6-oxo-1,6-dihydropyridazine-3-carboxamide] | – | 10 | – | 10
20 | O=C(Nc1ccc(Cc2cccc(F)c2)cn1)c1ccc(=O)n(CC2CC2)n1 [Compound 77, 1-(cyclopropylmethyl)-N-(5-(3-fluorobenzyl)pyridin-2-yl)-6-oxo-1,6-dihydropyridazine-3-carboxamide] | – | > 45000 | – | 6730
21 | CCn1cc(C(=O)Nc2ccc(Cc3cc(F)cc(OC)c3)cn2)ccc1=O [Compound 78, 1-ethyl-N-(5-(3-fluoro-5-methoxybenzyl)pyridin-2-yl)-6-oxo-1,6-dihydropyridine-3-carboxamide] | – | > 45000 | – | 640
22 | CCn1cc(NC(=O)c2ccc(Cc3cc(F)cc(Cl)c3)cn2)ccc1=O [Compound 79, 5-(3-Chloro-5-fluorobenzyl)-N-(1-ethyl-6-oxo-1,6-dihydropyridin-3-yl)picolinamide] | – | 5190 | – | 10
23 | CCn1cc(C(=O)Nc2ccc(Cc3ccc(F)cc3)cn2)ccc1=O [Compound 81, 1-ethyl-N-(5-(4-fluorobenzyl)pyridin-2-yl)-6-oxo-1,6-dihydropyridine-3-carboxamide] | – | > 45000 | – | 2420
24 | CCn1cc(C(=O)Nc2ccc(Cc3ccc(F)c(Cl)c3)cn2)ccc1=O [Compound 82, N-(5-(3-chloro-4-fluorobenzyl)pyridin-2-yl)-1-ethyl-6-oxo-1,6-dihydropyridine-3-carboxamide] | – | > 45000 | – | 30
25 | CC(C)n1cc(C(=O)Nc2ccc(Cc3cccc(Cl)c3)cn2)ccc1=O [Compound 83, N-(5-(3-chlorobenzyl)pyridin-2-yl)-1-isopropyl-6-oxo-1,6-dihydropyridine-3-carboxamide] | 420 | > 45000 | – | –
26 | CCn1cc(C(=O)Nc2ccc(Cc3cccc(Cl)c3)cn2)ccc1=O [Compound 84, N-(5-(3-chlorobenzyl)pyridin-2-yl)-1-ethyl-6-oxo-1,6-dihydropyridine-3-carboxamide] | – | 6660 | – | 370
27 | CN1N=C(NC(=O)c2ccc(Cc3cccc(Cl)c3)cn2)CCC1=O [Compound 86, 5-(3-Chlorobenzyl)-N-(1-methyl-6-oxo-1,4,5,6-tetrahydropyridazin-3-yl)picolinamide] | – | 9690 | – | 70
28 | CN1N=C(NC(=O)c2ccc(Cc3ccc(F)c(F)c3)cn2)CCC1=O [Compound 87, 5-(3,4-Difluorobenzyl)-N-(1-methyl-6-oxo-1,4,5,6-tetrahydropyridazin-3-yl)picolinamide] | – | > 45000 | – | 280
29 | Cn1nc(NC(=O)c2ccc(Cc3cccc(F)c3)cn2)ccc1=O [Compound 88, 5-(3-Fluorobenzyl)-N-(1-methyl-6-oxo-1,6-dihydropyridazin-3-yl)picolinamide] | – | 650 | – | 20
30 | Cn1nc(NC(=O)c2ccc(Cc3cccc(Cl)c3)cn2)ccc1=O [Compound 89, 5-(3-Chlorobenzyl)-N-(1-methyl-6-oxo-1,6-dihydropyridazin-3-yl)picolinamide] | – | 110 | – | 10
31 | CN1N=C(NC(=O)c2ccc(Cc3cccc(F)c3)cn2)CCC1=O [Compound 90, 5-(3-Fluorobenzyl)-N-(1-methyl-6-oxo-1,4,5,6-tetrahydropyridazin-3-yl)picolinamide] | – | 18000 | – | 620
32 | Cn1ccc(C(=O)Nc2ccc(Cc3cccc(Cl)c3)cn2)n1 [Compound 91, N-(5-(3-chlorobenzyl)pyridin-2-yl)-1-methyl-1H-pyrazole-3-carboxamide] | – | 10 | – | 10
